Here are results for 25 molecules from US20230277534A1 (Plexxikon Inc., priority 2011, published 2023).

What is called IC50 is the point on the concentration scale where inhibition reaches its midpoint. The low end stands for inhibition by little substance, the high end for a need for much substance. Broadly, the EC50 is the concentration needed to bring the measured effect to its halfway point.

Assay [1] has as its system COLO205 colon adenocarcinoma cells (B-Raf V600E mutation). Briefly: COLO205 cell growth inhibition (ATPlite). The format is cell-based. The conditions noted are these: Homo sapiens, COLO 205, 72 h, 3 days. In short, it runs like this:
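Cells treated for 3 days at 37 °C, 5% CO2 with an 8-point 1:3 dilution series, top final concentration 10 μM, DMSO control. ATPlite luminescence used as a measure of cell number; IC50 from reading versus concentration.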
On the technique in general: In ATP-based viability assays light output follows the ATP content of the culture.

For assay [2], the system named is IPC-298 human melanoma cell line that expresses activated NRAS. Briefly: IPC-298_P-ERK cell activation assay (phosphorylated ERK, AlphaScreen). It is filed as cell-based. The conditions noted are these: 1 h, IPC-298 cells, P-ERK activation, compound for one hour. How it is done: B9 is a squamous cell carcinoma cell line expressing activated HRAS that was isolated from a DMBA/TPA-induced mouse model of skin carcinogenesis (Stoler, et al. The Journal of Cell Biology, 1993, 122(5), 1103-17). IPC-298 is a human melanoma cell line that expresses activated NRAS (Aubert, et al. International Journal of Cancer, 1993, 54(5), 784-92). To determine whether compounds induce phosphorylated ERK and MEK, cells are plated in a 96-well dish and treated with an 8-point titration of compound for one hour at 37° C. The media is then removed and the cells are incubated with lysis buffer containing protease and phosphatase inhibitors. Phosphorylated ERK and MEK in the resulting lysates is detected using AlphaScreen™ technology. To detect phosphorylated ERK, cell lysates are incubated with streptavidin-coated donor beads, anti-mouse IgG acceptor beads, a biotinylated anti-ERK1/2 rabbit antibody, and a mouse antibody that recognizes ERK1/2 only when it is phosphorylated on Thr202 and Tyr204. The biotinylated ERK1/2 antibody will bind to both the streptavidin-coated donor beads and to ERK1/2 (regardless of its phosphorylation state), and the phospho-ERK1/2 antibody will bind to the acceptor beads and to ERK1/2 that is phosphorylated at Thr202/Tyr204. Excitation of the beads with laser light at 680 nm produces singlet oxygen, which is rapidly quenched unless the beads are in close proximity. When ERK is phosphorylated, both antibodies can bind the same protein, bringing the donor and acceptor beads into close proximity, producing a signal that can be measured at 580 nm. MEK phosphorylation is detected using a similar approach, only with antibodies directed against total MEK1/2 and MEK1/2 that is phosphorylated at Ser217 and Ser221.
(In Alpha technology, singlet oxygen from a donor bead excites a nearby acceptor bead.)

The target in a further assay is B-Raf V600E (Homo sapiens (Human), UniProt P15056, V600E). Briefly: B-Raf V600E kinase biochemical activity assay (AlphaScreen, biotin-MEK1 substrate). The following applies: 100 μM ATP. In short, it runs like this:
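IC50 was derived from AlphaScreen signal (anti-phospho-MEK1/2 antibody with streptavidin donor and Protein A acceptor beads, 3 h) across 8 compound concentrations. The kinase step ran 45 min at room temperature: 0.1 ng B-Raf V600E, 100 nM biotin-MEK1, 100 μM final ATP, pH 7.0 HEPES with MgCl2/MnCl2.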

Chain of B-Raf V600E (P15056 whole entry V600E): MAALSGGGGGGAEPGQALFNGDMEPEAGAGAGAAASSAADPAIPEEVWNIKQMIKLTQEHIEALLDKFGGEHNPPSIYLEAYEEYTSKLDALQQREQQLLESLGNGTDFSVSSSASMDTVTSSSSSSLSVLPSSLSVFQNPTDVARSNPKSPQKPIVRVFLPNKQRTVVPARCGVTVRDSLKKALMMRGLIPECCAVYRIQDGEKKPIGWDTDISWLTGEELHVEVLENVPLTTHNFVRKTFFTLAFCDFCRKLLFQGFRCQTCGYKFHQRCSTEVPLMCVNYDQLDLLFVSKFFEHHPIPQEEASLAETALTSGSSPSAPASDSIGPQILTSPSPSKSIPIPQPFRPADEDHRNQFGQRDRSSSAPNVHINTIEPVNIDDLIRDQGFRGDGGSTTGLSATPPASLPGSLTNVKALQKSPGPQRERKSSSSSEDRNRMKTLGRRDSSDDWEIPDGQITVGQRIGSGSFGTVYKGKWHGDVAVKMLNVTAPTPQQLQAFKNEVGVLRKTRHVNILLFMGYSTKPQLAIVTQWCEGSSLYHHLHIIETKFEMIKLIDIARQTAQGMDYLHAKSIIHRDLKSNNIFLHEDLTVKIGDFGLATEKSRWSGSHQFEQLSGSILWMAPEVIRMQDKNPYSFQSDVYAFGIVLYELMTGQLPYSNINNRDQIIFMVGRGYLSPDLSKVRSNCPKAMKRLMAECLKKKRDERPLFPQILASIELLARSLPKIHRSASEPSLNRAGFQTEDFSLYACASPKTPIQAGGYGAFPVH

With `CCN(C)S(=O)(=O)Nc1ccc(F)c(C(=O)c2c[nH]c3ncc(Cl)cc23)c1F` [Compound P-0012, 5-chloro-3-[3-[[ethyl(methyl)sulfamoyl]amino]-2,6-difluoro-benzoyl]-1H-pyrrolo[2,3-b]pyridine], the values for the IC50 (in assay [1]; at B-Raf V600E) were over 1 µM and under 0.1 µM, respectively. The molecule also showed an EC50 in assay [2] of over 10 µM.

For `CCN(C)S(=O)(=O)Nc1ccc(F)c(C(=O)c2c[nH]c3ncc(-c4cnc(OC)nc4)cc23)c1F` [Compound P-0014], in assay [1], the IC50 is under 1 µM. The molecule also showed an EC50 in assay [2] of over 8 µM.

Regarding `CCN(C)S(=O)(=O)Nc1ccc(F)c(C(=O)c2c[nH]c3ncc(C#N)cc23)c1F` [Compound P-0017, 5-cyano-3-[3-[[ethyl(methyl)sulfamoyl]amino]-2,6-difluoro-benzoyl]-1H-pyrrolo[2,3-b]pyridine], the IC50 in assay [1] is over 1 µM; against B-Raf V600E it was under 0.1 µM. The EC50 in assay [2] is over 10 µM.

Take `CCN(C)S(=O)(=O)Nc1cccc(C(=O)c2c[nH]c3ncc(Cl)cc23)c1F` [Compound P-0018, 5-chloro-3-[3-[[ethyl(methyl)sulfamoyl]amino]-2-fluoro-benzoyl]-1H-pyrrolo[2,3-b]pyridine]: the IC50 in assay [1] is over 1 µM; at B-Raf V600E it was under 0.1 µM. The molecule also registered an EC50 in assay [2] of over 10 µM.

`CCN(C)S(=O)(=O)Nc1cccc(C(=O)c2c[nH]c3ncc(-c4ccc(Cl)cc4)cc23)c1F` [Compound P-0019] yielded a concentration for half-maximal inhibition (IC50) in assay [1] of over 1 µM. In assay [2], this molecule registered an EC50 of over 10 µM.

`CCN(C)S(=O)(=O)Nc1cccc(C(=O)c2c[nH]c3ncc(-c4cnc(OC)nc4)cc23)c1F` [Compound P-0020] had an IC50 in assay [1] of under 1 µM. The EC50 in assay [2] is over 10 µM.

For the molecule `Cc1cnc2[nH]cc(C(=O)c3cccc(NS(=O)(=O)N4CCCC4)c3F)c2c1` [Compound P-0023, N-[2-fluoro-3-(5-methyl-1H-pyrrolo[2,3-b]pyridine-3-carbonyl)phenyl]pyrrolidine-1-sulfonamide], the half-maximal inhibitory concentration (IC50) is over 1 µM in assay [1] and under 0.1 µM against B-Raf V600E. Besides, the EC50 in assay [2] was over 10 µM.

`COc1ncc(-c2cnc3[nH]cc(C(=O)c4cccc(NS(=O)(=O)N(C)C5CC5)c4F)c3c2)cn1` [Compound P-0025]: the IC50 in assay [1] was under 1 µM. In assay [2], the EC50 was over 10 µM.

With `CCN(C)S(=O)(=O)Nc1cccc(C(=O)c2c[nH]c3ncc(-c4ccc(C)nc4)cc23)c1F` [Compound P-0033], the IC50 in assay [1] was under 1 µM. In assay [2], this molecule registered an EC50 of over 10 µM.

In turn, `CCN(C)S(=O)(=O)Nc1cccc(C(=O)c2c[nH]c3ncc(-c4ccc(F)cc4)cc23)c1F` [Compound P-0034] displayed an IC50 in assay [1] of over 1 µM. This molecule gave an EC50 in assay [2] of over 10 µM.

Take `CN(C)S(=O)(=O)Nc1cccc(C(=O)c2c[nH]c3ncc(-c4ccc(F)cc4)cc23)c1F` [Compound P-0035]: the IC50 in assay [1] is over 1 µM. The same molecule yielded an EC50 in assay [2] of over 10 µM.

For the molecule `CCN(C)S(=O)(=O)Nc1cccc(C(=O)c2c[nH]c3ncc(Br)cc23)c1F` [Compound P-0038, 5-bromo-3-[3-[[ethyl(methyl)sulfamoyl]amino]-2-fluoro-benzoyl]-1H-pyrrolo[2,3-b]pyridine], the results for the IC50 (in assay [1]; against B-Raf V600E) were over 1 µM and under 0.1 µM, respectively. In addition, in assay [2], the EC50 was over 10 µM.

For the molecule `CCN(C)S(=O)(=O)Nc1cccc(C(=O)c2c[nH]c3ncc(C#N)cc23)c1F` [Compound P-0039, 5-cyano-3-[3-[[ethyl(methyl)sulfamoyl]amino]-2-fluoro-benzoyl]-1H-pyrrolo[2,3-b]pyridine], the IC50 in assay [1] is over 1 µM. In assay [2], this molecule had an EC50 of over 10 µM.

Turning to `CCCN(C)S(=O)(=O)Nc1cccc(C(=O)c2c[nH]c3ncc(-c4cnc(OC)nc4)cc23)c1F` [Compound P-0040, 3-[2-fluoro-3-[[methyl(propyl)sulfamoyl]amino]benzoyl]-5-(2-methoxypyrimidin-5-yl)-1H-pyrrolo[2,3-b]pyridine], the IC50 is under 1 µM in assay [1] and under 0.1 µM against B-Raf V600E. The same molecule returned an EC50 in assay [2] of over 10 µM.

On to `Cn1cc(-c2cnc3[nH]cc(C(=O)c4cccc(NS(=O)(=O)CC5CC5)c4F)c3c2)cn1` [Compound P-0042, 1-cyclopropyl-N-[2-fluoro-3-[5-(1-methylpyrazol-4-yl)-1H-pyrrolo[2,3-b]pyridine-3-carbonyl]phenyl]methanesulfonamide], for which the IC50 in assay [1] was under 1 µM. For the same molecule, the EC50 in assay [2] is over 10 µM.

In the case of `O=C(c1cccc(NS(=O)(=O)N2CCCC2)c1F)c1c[nH]c2ncc(-c3cccnc3)cc12` [Compound P-0043, N-[2-fluoro-3-[5-(3-pyridyl)-1H-pyrrolo[2,3-b]pyridine-3-carbonyl]phenyl]pyrrolidine-1-sulfonamide], the IC50 in assay [1] is under 1 µM; at B-Raf V600E, under 0.1 µM. In assay [2], the concentration for a half-maximal effect (EC50) was over 10 µM.

`COc1ncc(-c2cnc3[nH]cc(C(=O)c4cccc(NS(=O)(=O)N5CCCC5)c4F)c3c2)c(OC)n1` [Compound P-0044, N-[3-[5-(2,4-dimethoxypyrimidin-5-yl)-1H-pyrrolo[2,3-b]pyridine-3-carbonyl]-2-fluoro-phenyl]pyrrolidine-1-sulfonamide] had an IC50 in assay [1] of under 1 µM. In assay [2], this molecule registered an EC50 of over 10 µM.

Consider `Cc1ccc(-c2cnc3[nH]cc(C(=O)c4cccc(NS(=O)(=O)N5CCCC5)c4F)c3c2)cn1` [Compound P-0045, N-[2-fluoro-3-[5-(6-methyl-3-pyridyl)-1H-pyrrolo[2,3-b]pyridine-3-carbonyl]phenyl]pyrrolidine-1-sulfonamide], for which the half-inhibitory concentration (IC50) in assay [1] was under 1 µM; at B-Raf V600E, under 0.1 µM. This molecule also had a 50% effective concentration (EC50) in assay [2] of over 10 µM.

On to `CC(C)c1ncc(-c2cnc3[nH]cc(C(=O)c4cccc(NS(=O)(=O)N5CCCC5)c4F)c3c2)cn1` [Compound P-0047, N-[2-fluoro-3-[5-(2-isopropylpyrimidin-5-yl)-1H-pyrrolo[2,3-b]pyridine-3-carbonyl]phenyl]pyrrolidine-1-sulfonamide], for which the IC50 was under 1 µM in assay [1] and under 0.1 µM against B-Raf V600E. The EC50 in assay [2] is over 10 µM.

Take `O=C(c1cccc(NS(=O)(=O)N2CCCC2)c1F)c1c[nH]c2ncc(-c3cnc(C4CC4)nc3)cc12` [Compound P-0048, N-[3-[5-(2-cyclopropylpyrimidin-5-yl)-1H-pyrrolo[2,3-b]pyridine-3-carbonyl]-2-fluoro-phenyl]pyrrolidine-1-sulfonamide]: the IC50 in assay [1] was under 1 µM; on B-Raf V600E it was under 0.1 µM. The EC50 in assay [2] was over 10 µM.

For `COc1cc(-c2cnc3[nH]cc(C(=O)c4cccc(NS(=O)(=O)N5CCCC5)c4F)c3c2)ccc1C#N` [Compound P-0049, N-[3-[5-(4-cyano-3-methoxy-phenyl)-1H-pyrrolo[2,3-b]pyridine-3-carbonyl]-2-fluoro-phenyl]pyrrolidine-1-sulfonamide], the IC50 in assay [1] is under 1 µM; against B-Raf V600E it was under 0.1 µM. This molecule also yielded a concentration giving a half-maximal response (EC50) in assay [2] of over 4 µM.

`COc1cc(-c2cnc3[nH]cc(C(=O)c4c(F)ccc(NS(=O)(=O)N5CCCC5)c4F)c3c2)ccn1` [Compound P-0287, N-[2,4-difluoro-3-[5-(2-methoxy-4-pyridyl)-1H-pyrrolo[2,3-b]pyridine-3-carbonyl]phenyl]pyrrolidine-1-sulfonamide] came in with an IC50 in assay [1] of under 1 µM. This molecule also came in with an EC50 in assay [2] of over 4 µM.

With `O=C(c1c(F)ccc(NS(=O)(=O)N2CCC(F)(F)C2)c1F)c1c[nH]c2ncc(-c3cnc(C4CC4)nc3)cc12` [Compound P-0288, N-[3-[5-(2-cyclopropylpyrimidin-5-yl)-1H-pyrrolo[2,3-b]pyridine-3-carbonyl]-2,4-difluoro-phenyl]-3,3-difluoro-pyrrolidine-1-sulfonamide], the EC50 in assay [2] was over 2 µM. Besides, the 50% inhibitory concentration (IC50) on B-Raf V600E is under 0.1 µM.

Consider `CCN(C)S(=O)(=O)Nc1ccc(F)c(C(=O)c2c[nH]c3ncc(-c4ccc(C#N)cc4)cc23)c1F` [Compound P-0300, 5-(4-cyanophenyl)-3-[3-[[ethyl(methyl)sulfamoyl]amino]-2,6-difluoro-benzoyl]-1H-pyrrolo[2,3-b]pyridine], for which the EC50 in assay [2] is over 4 µM. Further, the IC50 on B-Raf V600E is under 0.1 µM.

As to `NS(=O)(=O)Nc1ccc(F)c(C(=O)c2c[nH]c3ncc(-c4cnc(C5CC5)nc4)cc23)c1F` [Compound P-0336, 5-(2-cyclopropylpyrimidin-5-yl)-3-[2,6-difluoro-3-(sulfamoylamino)benzoyl]-1H-pyrrolo[2,3-b]pyridine], the EC50 in assay [2] was over 4 µM. The IC50 at B-Raf V600E is over 0.1 µM.
